3 compounds from patent US20080226718A1, “Indole and Azaindole Derivatives For the Treatment of Inflammatory and Autoimmune Diseases” (Brane Discovery S.r.l, priority 2005, published 2008) can be followed below.

The structures appear in SMILES notation.

In assay [1] the test system is encephalitogenic lymphocytes. Kind of assay: Chemokine-induced adhesion of murine encephalitogenic T cells to ICAM-1. The format is cell-based, SJL mice. The note with it: for Chemokine-induced Adhesion in encephalitogenic lymphocytes, Mean counts ± S.D., in presence of MIP3-β stimulation: 1 μM CCL19 (MIP-3beta); for Chemokine-induced Adhesion in encephalitogenic lymphocytes, Mean counts ± S.D., in presence of MIP3-β stimulation / Adhesion in encephalitogenic lymphocytes, Mean counts ± S.D., in absence of MIP3-β stimulation: ICAM-1. How it is done:
(§1) Adhesion was performed on purified integrin ligands and was evaluated as reported in Constantin G. et al., Immunity, 16, 759-769, 2000. Briefly, primary naïve lymphocytes, polymorphonuclear neutrophils (PMNs) or monocytes were isolated form healthy donors. In other experiments, murine autoreactive T cells were obtained from SJL mice immunized with PLP139-151 as described (Piccio L. et al., J. Immunol, 168, 1940-1949, 2002). Cells were resuspended at 4×10^6/ml in PBS, CaCl2, MgCl2 1 mM, 10% FCS, pH 7.2. Adhesion assays were performed on eighteen well glass slides coated overnight at 4° C. with ligands for CR3 (fibrinogen) or LFA-1 (ICAM-1). 20 μl of cell suspension were added to the wells and stimulated at 37° C. with 5 μl of agonists prior to washing, fixation and computer-assisted enumeration of bound cells.
(§2) Integrin activation was measured as induction of rapid adhesion triggered by the classical chemoattractant N-formyl-L-methionyl-L-leucyl-phenylalanine (fMLP) (100 nM) or by the CC chemokine MIP3β (CCL19, 1 μM). PMNs and monocytes were triggered to adhere to fibrinogen (CR3 ligand); naive human lymphocytes or murine encephalitogenic T cells were triggered to adhere to ICAM-1 (LFA-1 ligand). Triggered adhesion was evaluated after 2 min of stimulation under static conditions. The cells were pretreated at 37° C. for 30-60 min with the indicated concentrations of the test compound. Results are expressed as percentage of inhibition over control (=100%) and are the mean of three experiments in the case of human leukocytes. Results are expressed as mean counts and are the mean counts ±S.D of three experiments and are the mean of three experiments in the case of murine encephalitogenic lymphocytes.
Chemokines trigger rapid arrest of lymphocytes in blood vessels through pertussis toxin-sensitive G protein coupled receptors. Rapid adhesion to purified ICAM-1 was measured in in vitro adhesion assays using control/untreated cells and lymphocytes treated with concentration between 5-50 μM for 1 h. Autoreactive lymphocytes were then stimulated with 1 μM CCL19 (MIP-3beta) for 3 min. […] These compounds were already efficient in blocking adhesion using a concentration of 5 μM for the cell treatment.

In assay [2] the test system is encephalitogenic lymphocytes. The experiment in a line: Spontaneous adhesion of encephalitogenic T cells on purified ICAM-1. The format is cell-based, SJL mice. Conditions: Mus musculus, Lymphocyte, 1 h; for inhibition at 5 µM: [cpd] 5 μM, read-out: Inhibition of Spontaneous Adhesion in encephalitogenic lymphocytes (% of control/non-treated cells) ICAM-1; for inhibition at 10 µM: [cpd] 10 μM; for inhibition at 50 µM: [cpd] 50 μM. The method, then:
(§3) Spontaneous adhesion of encephalitogenic lymphocytes was measured in adhesion assays on purified ICAM-1 and VCAM-1 as previously described (Constantin G. et al., J. Immunol. 162, 1144-1149, 1999). Autoreactive T cells were obtained from SJL mice immunized with PLP139-151 as described (Piccio L. et al., J. Immunol. 168, 1940-1949, 2002). Lymphocytes were treated with test compound at concentrations between 5-100 μM for 1 h, while control/untreated cells were treated with vehicle (DMSO). Results are expressed as percentage of inhibition over control (=100%) ±S.D and are the mean of three-four experiments.
(§4) ICAM-1 and VCAM-1 are adhesion molecules from the family of immunoglobulins and control the migration of lymphocytes through the endothelium during inflammatory responses. Encephalitogenic T cells are activated lymphocytes displaying spontaneous adhesion on ICAM-1 and VCAM-1 and have increased migration capacities in inflammation sites. Spontaneous adhesion of encephalitogenic lymphocytes was measured in adhesion assays on purified ICAM-1 and VCAM-1 as described in the method.

The subject of assay [3] is encephalitogenic lymphocytes. Kind of assay: Spontaneous adhesion of encephalitogenic T cells on purified VCAM-1. The format is cell-based, SJL mice. Conditions: Mus musculus, Lymphocyte, 1 h. The method, then:
as §3, §4

Assay [4] relates to lymphocytes. The experiment in a line: Chemokine-induced rapid adhesion of lymphocytes to ICAM-1 (MIP3β). The format is cell-based. Conditions: Homo sapiens, Lymphocyte, MIP3β 1 μM; for inhibition at 10 µM: [cpd] 10 μM, read-out: Inhibition of Adhesion (%) Lymphocytes (MIP3-β); for inhibition at 25 µM: [cpd] 25 μM; for inhibition at 25 µM / inhibition at 50 µM: read-out: Inhibition of Adhesion (%) Lymphocytes (MIP3-β) (converted); for inhibition at 50 µM: [cpd] 50 μM. The method, then: as §1, §2
(§5) Integrin activation was measured as induction of rapid adhesion triggered by the “classical” chemoattractant fMLP (100 nM) or by the CC chemokine MIP3β (CCL19, 1 μM). PMNs were triggered to adhere to fibrinogen (CR3 ligand); lymphocytes were triggered to adhere to ICAM-1 (LFA-1 ligand).

In assay [5] the test system is monocytes. Kind of assay: Chemokine-induced rapid adhesion of monocytes to fibrinogen (fMLP). The format is cell-based. The note with it: Homo sapiens, Monocyte, fMLP 100 nM; for inhibition at 10 µM: [cpd] 10 μM; for inhibition at 25 µM: [cpd] 25 μM; for inhibition at 50 µM: [cpd] 50 μM. How it is done: as §1, §2
The test system of assay [6] is lymphocytes. Kind of assay: Chemotaxis assay, lymphocytes (MIP-3β). The format is cell-based. Conditions: Homo sapiens, Lymphocyte, MIP-3β 100 nM, 4 h; for inhibition at 10 µM: [cpd] 10 μM, read-out: Inhibition of Chemotaxis (%) Lymphocytes (MIP3-β); for inhibition at 25 µM: [cpd] 25 μM; for inhibition at 25 µM / inhibition at 50 µM: read-out: Inhibition of Chemotaxis (%) Lymphocytes (MIP3-β) (converted); for inhibition at 50 µM: [cpd] 50 μM. The method, then: (§6) PMNs and monocytes migration was assessed using 1 or 3-μm pore size transwells (Bio-Coat Becton-Dickinson), while lymphocytes by using 5-elm pore size transwells.
(§7) Cells were in RPMI1640, containing 10% heat-inactivated Fetal Calf Serum (FCS) and 20 mM HEPES, pH 7.3, at 2×10^6/ml. 100 μl of cell suspension were added to the top well, and 600 μl of medium, containing chemoattractants and test compound, were added to the bottom well. Migration was evaluated after 2 h for PMNs and monocytes and after 4 h for lymphocytes. fMLP 10 nM (PMNs and monocytes) and MIP-3β 100 nM (lymphocytes) were utilized as chemoattractants. After fixation with 1.5% glutaraldehyde, migrated cells were counted by fluorescence-activated celli sorting using polystyrene beads (Polyscience) as an internal standard (Campbell J. J. et al. J. Cell. Biol. 134, 255-266, 1996; Laudanna C. et al. J. Biol. Chem. 273,46, 30306-30315, 1998).
(§8) Results are expressed as percentage of inhibition over control (=100%), and are the mean of three experiments.

The test system of assay [7] is monocytes. The experiment in a line: Chemotaxis assay, monocytes (fMLP). The note with it: Homo sapiens, Monocyte, fMLP 10 nM, 2 h; for inhibition at 10 µM: [cpd] 10 μM; for inhibition at 25 µM: [cpd] 25 μM; for inhibition at 50 µM: [cpd] 50 μM. The format is cell-based. How it is done:
as §6, §7, §8

For assay [8], the system named is PMNs. Kind of assay: Chemokine-induced rapid adhesion of PMNs to fibrinogen (fMLP). The format is cell-based. Conditions: Homo sapiens, 2 min, fMLP 100 nM; for inhibition at 10 µM: [cpd] 10 μM; for inhibition at 25 µM: [cpd] 25 μM; for inhibition at 50 µM: [cpd] 50 μM. How it is done:
as §1, §2, §5

Assay [9] concerns PMNs. Kind of assay: Chemotaxis assay, PMNs (fMLP). Conditions: Homo sapiens, fMLP 10 nM, 2 h; for inhibition at 10 µM: [cpd] 10 μM; for inhibition at 25 µM: [cpd] 25 μM; for inhibition at 50 µM: [cpd] 50 μM. The format is cell-based. How it is done: as §6, §7, §8
The mark [10] stands for this setting: read-out: Inhibition of Spontaneous Adhesion in encephalitogenic lymphocytes (% of control/non-treated cells) ICAM-1 (converted).

Turning to `COC(=O)c1[nH]c2cc(OC)c(OC)cc2c1-c1ccccc1` [Example 3], in assay [1] (5-50 μM for 1 h, 1 μM CCL19), the “Block of chemokine-induced autoreactive lymphocyte adhesion, in words” value is “almost complete block”. In addition, the “Chemokine-induced Adhesion in encephalitogenic lymphocytes, Mean counts ± S.D., in presence of MIP3-β stimulation” value (shortened to “Chemokine-induced Adhesion”) was determined as 10.5 ± 3.0 in assay [1] ([cpd] 5 μM), 8.7 ± 3.0 in [1] ([cpd] 10 μM), 3.5 ± 1.5 in assay [1] ([cpd] 25 μM) and 5.0 ± 2.0 in [1] ([cpd] 50 μM). Moreover, the “Adhesion in encephalitogenic lymphocytes, Mean counts ± S.D., in absence of MIP3-β stimulation” value (from here on “Adhesion … in absence of MIP3-β stimulation”) in [1] ([cpd] 5 μM) was determined as 1.5 ± 2.0; in assay [1] ([cpd] 10 μM) it was 1.8 ± 1.0; in assay [1] ([cpd] 25 μM) it was 1.2 ± 1.0; in [1] ([cpd] 50 μM), 0.5 ± 2.0. The inhibition at 5 µM in [2] is 78%; in assay [3] ([cpd] 5 μM, read-out: Inhibition of Spontaneous Adhesion in encephalitogenic lymphocytes (% of control/non-treated cells) VCAM-1), 6%. The inhibition at 10 µM is 79.5% in assay [2] (setting [10]) and 9% in [3] ([cpd] 10 μM, read-out: Inhibition of Spontaneous Adhesion in encephalitogenic lymphocytes (% of control/non-treated cells) VCAM-1 (converted)). For the same compound, the inhibition at 25 µM in assay [2] ([cpd] 25 μM, read-out: Inhibition of Spontaneous Adhesion in encephalitogenic lymphocytes (% of control/non-treated cells) ICAM-1 (converted)) was 90%; in assay [3] ([cpd] 25 μM, read-out: Inhibition of Spontaneous Adhesion in encephalitogenic lymphocytes (% of control/non-treated cells) VCAM-1 (converted)), 32.5%. Further, the inhibition at 50 µM in assay [2] (setting [10]) is 92%; in assay [3] ([cpd] 50 μM, read-out: Inhibition of Spontaneous Adhesion in encephalitogenic lymphocytes (% of control/non-treated cells) VCAM-1 (converted)), 71.4%. Further, in [2] ([cpd] 100 μM, read-out: Inhibition of Spontaneous Adhesion in encephalitogenic lymphocytes (% of control/non-treated cells) ICAM-1 (converted)), the inhibition at 100 µM is 99%.
Regarding `COc1ccc(-c2c(C#N)n(CCCN(C)C)c3cc(OC)c(OC)cc23)cc1` [Example 55], the inhibition at 10 µM was 80% in the assay with lymphocytes [4]; 7.7% with monocytes [5]; 43.7% with lymphocytes [6]; 54.6% in the assay with monocytes [7]; 12.4% in assay [2] (setting [10]); 8.4% in the assay on PMNs [8]. In the assay on PMNs [9], this compound registered an inhibition at 10 µM of 79.4%. Further, the inhibition at 25 µM with lymphocytes [4] was 91.9%; in the assay with monocytes [5] it was 38.5%; with lymphocytes [6] it was 84.2%; in the assay with monocytes [7], 89.2%; in the assay with PMNs [8], 19%; in the assay on PMNs [9], 94.2%. The inhibition at 50 µM in the assay on lymphocytes [4] is 97%; in the assay with monocytes [5], 97.9%; in the assay on lymphocytes [6], 91.2%; in the assay with monocytes [7], 92.9%; in [2] (setting [10]) it was 96.4%; with PMNs [8] it was 27.4%. Moreover, the inhibition at 50 µM with PMNs [9] was 96.8%. In addition, the figures for the “Chemokine-induced Adhesion” value in [1] ([cpd] 10 μM) and in assay [1] ([cpd] 50 μM) were 98.3 ± 13.7 and 46.9 ± 6.2, respectively. Moreover, the figures for the “Adhesion … in absence of MIP3-β stimulation” value in [1] ([cpd] 10 μM) and in assay [1] ([cpd] 50 μM) were 53.5 ± 3.5 and 13.2 ± 3.7, respectively. In addition, in [2], the inhibition at 5 µM stood at 7.6%.
With `COc1cc2[nH]c(-c3nnc[nH]3)c(-c3ccccc3)c2cc1OC` [Example 58], the inhibition at 10 µM is 92.1% in the assay on lymphocytes [4]; 6.8% in the assay on monocytes [5]; 49.3% in the assay on lymphocytes [6]; 51.7% in the assay on monocytes [7]; 49.5% in assay [2] (setting [10]); 33.1% in the assay with PMNs [8]. In the assay with PMNs [9], this compound returned an inhibition at 10 µM of 53.9%. The inhibition at 25 µM is 93.9% with lymphocytes [4]; 10.6% with monocytes [5]; 82.9% with lymphocytes [6]; 87.5% in the assay with monocytes [7]; 45% in the assay with PMNs [8]; 87.5% with PMNs [9]. The inhibition at 50 µM was 94.7% with lymphocytes [4]; 16.6% with monocytes [5]; 92.2% in the assay with lymphocytes [6]; 97.8% with monocytes [7]; 95.6% in assay [2] (setting [10]); 61.4% in the assay on PMNs [8]. In the assay with PMNs [9], this compound showed an inhibition at 50 µM of 97.9%. For the same compound, the “Chemokine-induced Adhesion” value in [1] ([cpd] 10 μM) amounted to 73.2 ± 5.5; in [1] ([cpd] 50 μM), 46.8 ± 4.7. Moreover, the “Adhesion … in absence of MIP3-β stimulation” value in [1] ([cpd] 10 μM) worked out at 48.7 ± 6.5; in assay [1] ([cpd] 50 μM), 19.8 ± 5.8. The inhibition at 5 µM in [2] is 40.7%.
